Experimental data published in patent publication US11091478B2 (Fochon Pharmaceuticals, Ltd., priority 2017, dated 2021).

Tests used:
[1] = system: DOHH2 cells; experiment: Cell proliferation assay (MTS), DOHH2 cells, 120 h; type: cell-based; conditions: Homo sapiens, DOHH-2, 120 h
Procedure, shortened: (§1)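 Proliferation was scored by MTS (2 h, then SDS stop, A490 with 650 nm reference) and IC50 derived. Compound ran at nine final concentrations from 1.5 to 10000 nM. DOHH2 were incubated 120 h and RS4;11 72 h, both plated at 5000 cells/well in RPMI-1640 plus 10% FBS.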

[2] = system: RS4;11 cells; experiment: Cell proliferation assay (MTS), RS4;11 cells, 72 h; type: cell-based; conditions: Homo sapiens, RS4-11, 72 h
Procedure, shortened: as §1

Row | SMILES | IC50 [2] [nM] | IC50 [1] [nM]
1 | CC1(C)CCC(CN2CCN(c3ccc(C(=O)NS(=O)(=O)c4cc5c(c([N+](=O)[O-])c4)N[C@H](CNS(=O)(=O)C4CCOCC4)CO5)c(Oc4cnc5[nH]ccc5c4)c3)CC2)=C(c2ccc(Cl)cc2)C1 [Example 2-139, (R)-2-((1H-pyrolo[2,3-b]pyridin-5-yl)oxy)-4-(4-((4′-chloro-5,5-dimethyl-3,4,5,6-tetra-hydro-[1,1′-biphenyl]-2-yl)methyl)piperazin-1-yl)-N-((5-nitro-3-(((tetrahydro-2H-pyran)-4-sulfonamido)methyl)-3,4-dihdyro-2H-benzo[b][1,4]oxazin-7-yl)sulfonyl)benzamide] | 88 | 338
2 | CC1(C)CCC(CN2CCN(c3ccc(C(=O)NS(=O)(=O)c4cc5c(c([N+](=O)[O-])c4)N[C@@H](CC(=O)N4CCOCC4)CO5)c(Oc4cnc5[nH]ccc5c4)c3)CC2)=C(c2ccc(Cl)cc2)C1 [Example 2-142, (S)-2-((1H-pyrrolo[2,3-b]pyridin-5-yl)oxy)-4-(4-((4′-chloro-5,5-dimethyl-3,4,5,6-tetra-hydro-[1,1′-biphenyl]-2-yl)methyl)piperazin-1-yl)-N-((3-(2-morpholino-2-oxoethyl)-5-nitro-3,4-dihydro-2H-benzo[b][1,4]oxazin-7-yl)sulfonyl)benzamide] | 3 | 28
3 | CC1(C)CCC(CN2CCN(c3ccc(C(=O)NS(=O)(=O)c4cc5c(c([N+](=O)[O-])c4)N[C@H](CC(=O)N4CCOCC4)CO5)c(Oc4cnc5[nH]ccc5c4)c3)CC2)=C(c2ccc(Cl)cc2)C1 [Example 2-143, (R)-2-((1H-pyrrolo[2,3-b]pyridin-5-yl)oxy)-4-(4-((4′-chloro-5,5-dimethyl-3,4,5,6-tetra-hydro-[1,1′-biphenyl]-2-yl)methyl)piperazin-1-yl)-N-((3-(2-morpholino-2-oxoethyl)-5-nitro-3,4-dihydro-2H-benzo[b][1,4]oxazin-7-yl)sulfonyl)benzamide] | 35 | 35

More lines, main results first:

Row | IC50 [2] [nM] | SMILES | IC50 [1] [nM]
4 | 3 | CC1(C)CCC(CN2CCN(c3ccc(C(=O)NS(=O)(=O)c4cc5c(c([N+](=O)[O-])c4)N[C@H](CC#N)CO5)c(Oc4cnc5[nH]ccc5c4)c3)CC2)=C(c2ccc(Cl)cc2)C1 [Example 2-144, (R)-2-((1H-pyrrolo[2,3-b]pyridin-5-yl)oxy)-4-(4-((4′-chloro-5,5-dimethyl-3,4,5,6-tetra-hydro-[1,1′-biphenyl]-2-yl)methyl)piperazin-1-yl)-N-((3-(cyanomethyl)-5-nitro-3,4-di-hydro-2H-benzo[b][1,4]oxazin-7-yl)sulfo-nyl)benzamide] | 14
5 | 1 | CC1(C)CCC(CN2CCN(c3ccc(C(=O)NS(=O)(=O)c4cc5c(c([N+](=O)[O-])c4)N[C@H](CS(C)(=O)=O)CO5)c(Oc4cnc5[nH]ccc5c4)c3)CC2)=C(c2ccc(Cl)cc2)C1 [Example 2-145, (S)-2-((1H-pyrrolo[2,3-b]pyridin-5-yl)oxy)-4-(4-((4′-chloro-5,5-dimethyl-3,4,5,6-tetra-hydro-[1,1′-biphenyl]-2-yl)methyl)piperazin-1-yl)-N-((3-((methylsulfonyl)methyl)-5-nitro-3,4-dihydro-2H-benzo[b][1,4]oxazin-7-yl)sulfonyl)benzamide] | 87
6 | 16 | CC1(C)CCC(CN2CCN(c3ccc(C(=O)NS(=O)(=O)c4cc5c(c([N+](=O)[O-])c4)N[C@@H](CS(C)(=O)=O)CO5)c(Oc4cnc5[nH]ccc5c4)c3)CC2)=C(c2ccc(Cl)cc2)C1 [Example 2-147, (R)-2-((1H-pyrrolo[2,3-b]pyridin-5-yl)oxy)-4-(4-((4′-chloro-5,5-dimethyl-3,4,5,6-tetra-hydro-[1,1′-biphenyl]-2-yl)methyl)piperazin-1-yl)-N-((3-((methylsulfonyl)methyl)-5-nitro-3,4-dihdyro-2H-benzo[b][1,4]oxazin-7-yl)sulfonyl)benzamide] | 135
